Values of other authors as cited in patent US20090306023A1, “STABLE ORGANIC PEROXIDE COMPOSITIONS” (priority 2005, published 2009).

Conditions: room temperature

With O=C(O)c1ccccc1O [Salicylic acid, 2-hydroxybenzoic acid] as the compound, how does the “limit of solubility in water” value read?
The value was “approximately 0.2%”.
